Legend:
[1] = tested on: normal NK cells expanded with K562-aAPC; experiment: percent inhibition of viability; higher = more inhibition; conditions: 72 h, IL-2 2.5 ng/mL
Protocol: (§1)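 Drug sensitivity and resistance testing on K562-aAPC-expanded normal NK cells: 5 concentrations (10-fold steps over a 10,000-fold range), 72 h at 37 °C, viability by CellTiter-Glo normalised to DMSO and benzethonium chloride controls; DSS from the fitted curve.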

[2] = tested on: DERL-7 (IL-2 2.5 ng/mL); experiment: drug sensitivity score (DSS) (DSS units); higher = more sensitive; extreme values may be limits of the assay; conditions: 72 h
[3] = tested on: normal primary NK cells, pool 3 (3 donors) (IL-2 2.5 ng/mL); experiment: as above; conditions: 72 h
[4] = tested on: KHYG-1 (IL-2 2.5 ng/mL); experiment: as above; conditions: 72 h
[5] = tested on: normal primary NK cells, pool 2 (3 donors) (IL-2 2.5 ng/mL); experiment: as above; conditions: 72 h
[6] = tested on: SNK-6 (IL-2 2.5 ng/mL); experiment: as above; conditions: 72 h
[7] = tested on: NK-YS (IL-2 2.5 ng/mL); experiment: as above; conditions: 72 h
[8] = tested on: normal primary NK cells, pool 1 (3 donors), resting (IL-2 0 ng/mL); experiment: as above; conditions: 72 h
[9] = tested on: KAI3 (IL-2 2.5 ng/mL); experiment: as above; conditions: 72 h
[10] = tested on: IMC-1 (IL-2 20 ng/mL); experiment: as above; conditions: 72 h
[11] = tested on: normal primary NK cells, pool 1 (3 donors) (IL-2 2.5 ng/mL); experiment: as above; conditions: 72 h
[12] = tested on: NK-92 (IL-2 2.5 ng/mL); experiment: as above; conditions: 72 h
[13] = tested on: YT (IL-2 2.5 ng/mL); experiment: as above; conditions: 72 h
[14] = tested on: NKL (IL-2 2.5 ng/mL); experiment: as above; conditions: 72 h
[15] = tested on: DERL-7 (IL-2 2.5 ng/mL); experiment: percent inhibition of viability; higher = more inhibition; conditions: 72 h
[16] = tested on: normal primary NK cells, pool 3 (3 donors) (IL-2 2.5 ng/mL); experiment: as above; conditions: 72 h
[17] = tested on: KHYG-1 (IL-2 2.5 ng/mL); experiment: as above; conditions: 72 h
[18] = tested on: normal primary NK cells, pool 2 (3 donors) (IL-2 2.5 ng/mL); experiment: as above; conditions: 72 h
[19] = tested on: SNK-6 (IL-2 2.5 ng/mL); experiment: as above; conditions: 72 h
[20] = tested on: NK-YS (IL-2 2.5 ng/mL); experiment: as above; conditions: 72 h
[21] = tested on: normal primary NK cells, pool 1 (3 donors), resting (IL-2 0 ng/mL); experiment: as above; conditions: 72 h
[22] = tested on: KAI3 (IL-2 2.5 ng/mL); experiment: as above; conditions: 72 h
[23] = tested on: IMC-1 (IL-2 20 ng/mL); experiment: as above; conditions: 72 h
[24] = tested on: normal primary NK cells, pool 1 (3 donors) (IL-2 2.5 ng/mL); experiment: as above; conditions: 72 h
[25] = tested on: NK-92 (IL-2 2.5 ng/mL); experiment: as above; conditions: 72 h
[26] = tested on: YT (IL-2 2.5 ng/mL); experiment: as above; conditions: 72 h
[27] = tested on: NKL (IL-2 2.5 ng/mL); experiment: as above; conditions: 72 h
[28] = tested on: normal NK cells expanded with K562-aAPC; experiment: drug sensitivity score (DSS) (DSS units); higher = more sensitive; extreme values may be limits of the assay; conditions: 72 h; IL-2 2.5 ng/mL
Protocol: as §1

CC(C)CC(=O)Nc1n[nH]c2c1CN(C(=O)C1CCN(C)CC1)C2(C)C (max concentration tested 10000 nM)
percent inhibition of viability [%]
Conditions	1 nM	10 nM	100 nM	1000 nM	10000 nM
[1]	1.26	-0.23	9.16	24.6	84.3
[15]	-3.18	-3.13	19.6	55.2	100
[16]	-6.64	-10.6	9.27	6.31	54.5
[17]	3.79	5.48	13.2	79.1	104
[18]	-7.33	3.3	10.1	14.3	85.4
[19]	1.24	13.9	17.6	21.7	77.7
[20]	-0.22	5.26	25.9	59.1	103
[21]	-13.4	-45.2	-20.7	-66.9	85
[22]	0.22	5.67	10.2	34.4	97.8
[23]	3.15	9.36	18	101	101
[24]	5.81	-11.3	1.49	2.13	93.6
[25]	-3.46	8.8	18	15.4	52.1
[26]	4.62	5.8	7.48	37.5	104
[27]	9.47	12.1	8.64	26	105

Conditions	drug sensitivity score
[2]	13.1
[3]	3.98
[4]	16.4
[5]	7.11
[6]	6.8
[7]	14.8
[8]	3.02
[9]	9.47
[10]	21
[11]	5.49
[12]	5.51
[13]	10.6
[14]	9.5
[28]	7.91

CNC(=O)c1cc(Oc2ccc(NC(=O)Nc3ccc(Cl)c(C(F)(F)F)c3)cc2)ccn1 [Sorafenib] (max concentration tested 1000 nM)
percent inhibition of viability [%]
Conditions	0.1 nM	1 nM	10 nM	100 nM	1000 nM
[1]	-0.62	-4.84	0.63	-4.73	-7.05
[15]	-14.3	2.59	4.15	1.1	25.2
[16]	-4.53	-9.01	-3.28	-8.55	-2.67
[17]	-1.09	0	-1.1	2.71	-0.82
[18]	-8.52	-3.3	-11.4	-7	-14.1
[19]	9.25	14.7	5.19	17.7	30.7
[20]	-0.65	-1.62	-0.99	3.14	5.95
[21]	-6.78	-15.6	0.71	9.47	20.5
[22]	2.87	5.97	0.72	2.84	-4.41
[23]	-6.25	-2.7	-8.4	-3.64	-1.65
[24]	-10	-8.22	-3.22	-10.4	-2.85
[25]	-2.2	-1.4	-3.13	-5.91	25.7
[26]	-0.23	-2.47	0.91	1.22	3.17
[27]	-18.1	-17.9	-14.8	-9.31	-11.3

Conditions	drug sensitivity score
[2]	1.11
[3]	0
[4]	0
[5]	0
[6]	3.94
[7]	0
[8]	1.53
[9]	0
[10]	0
[11]	0
[12]	0.73
[13]	0
[14]	0
[28]	0

From the supplement of paper PMC5908809
